Experiment [1] deals with splenocytic CD8+ T cells. Briefly: CFSE proliferation of CD8+ T cells after in vitro peptide restimulation. Format: cell-based, mouse. Particulars: mice immunized s.c. twice with 50 µg peptide in IFA; splenocytes restimulated with 10 µg/mL peptide for 8 days. Here is the method:
To screen the immunodominance of epitopic peptide in the induction of RSV-F specific Th1/Th2 expression, HLA-A*0201 transgenic C57BL/6 mice were anesthetized with isoflurane and immunized with 1×10^7 pfu/50 µL of rAd-F0 or rAd-LacZ or 1×10^4 live RSV B1 via the intranasal (i.n.) route. Twenty days later, the mice were given booster immunization i.n. with the same dose. After 10 days of boost, mice were sacrificed and splenocytes were isolated for the cytokine ELISPOT assay. […] Mice body weight was monitored daily.
The splenocytes were isolated, labeled with 5-(6)-carboxyfluorescein diacetate succinimidyl ester (CFSE) (Sigma-Aldrich) and stimulated in vitro with 10 µg/mL of the synthetic peptides for 4 or 8 days. Proliferation of splenocytic CD4^+ and CD8^+ T cells was analyzed by flow cytometry (BD FACSCalibur) using PE-Cy5-labeled specific antibody against CD4 (eBioscience) or CD8 (eBioscience), respectively. Cell division index (CDI), a ratio of CFSE-diluted CD4^+ or CD8^+ T cells stimulated by peptide to CFSE-diluted unstimulated CD4^+ or CD8^+ T cells, was calculated as shown below; [drawing 1] […]
Figure 2 Epitope-specific CD4^+ and CD8^+ T-cell activation in peptide-immunized HLA-A*0201 transgenic mice. […] Proliferation of CD4^+ (A) or CD8^+ (B) lymphocytes in response to the different CD8 epitopes was analyzed by flow cytometry using anti-CD4 or CD8 antibodies conjugated with PE-Cy5. […]

The test system of experiment [2] is peptide-loaded dendritic cells from HLA-Tg B6 mice. Put plainly: In vitro CTL assay (CFSE/7-AAD) with pulmonary effector lymphocytes. Format: cell-based, mouse. The following applies: pulmonary effector lymphocytes of immunized, RSV-challenged mice; peptide-loaded CFSE-labeled DCs; E:T 10:1 and 50:1; 7-AAD/CFSE flow cytometry. Here is the method:
Dendritic cells (DCs) isolated from HLA-A*0201-Tg B6 mice were used as target cells for CTL assay. Briefly, tibia were isolated from 6–8 weeks old mice and rinsed with 75% alcohol before their incubation with lymphocyte culture medium (LCM, RPMI containing 5% FBS, 20 mM HEPES, 50 µM 2-mecaptoenthanol, 1× P/S). The myeloid tissues were removed from the tibia with LCM and filtrated through 40 µm cell strainer (BD Falcon). The filtrates were centrifuged at 1200 rpm for 5 minutes and the cell pellet was resuspended in 2 mL RBC lysis solution (eBioscience), and incubated for 5 minutes followed by addition of 10 mL of 1× PBS buffer to stop lysis. […]
A non-radioactive assay for cell-mediated cytotoxicity using a green fluorescent probe CFSE to label target cells in combination with 7-amino-actinomycin D (7AAD), a red fluorescent probe to label dead effectors and target cells, was used to assess the presence of RSV F protein-specific CTLs in spleens or lungs of the immunized animals. […] CFSE was measured in FL1 channel and 7-AAD in FL3 channel. The percentage of CFSE/7-AAD double positive target cells (i.e., DCs cell death) was analyzed. […]
Figure 5 Induction of pulmonary IFN-γ and CTL activity in peptide immunized transgenic mice challenged with RSV. At day 4 post RSV infection, lung homogenates were prepared and the following were measured. […]
In general terms: In flow cytometry, cells or beads pass a laser one at a time.

As for “YMLTNSELL [peptide 14, HLA-A*0201-restricted 9-mer synthetic peptide from F protein of RSV-B1 strain]”, the “proliferation of CD8+ T cells (cell division index)” value in experiment [1] is given as roughly 3 fold. Besides, the “CTL activity, target cell lysis” value in experiment [2] is “efficient in target cell lysis”.

These data come from PMC3183052, “Immunoprotectivity of HLA-A2 CTL Peptides Derived from Respiratory Syncytial Virus Fusion Protein in HLA-A2 Transgenic Mouse” (PLoS ONE, 2011).
